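These data come from cells grown in 96-well plates and exposed to compound for 48 hours at five concentrations. GI50 = concentration required for 50% inhibition of growth. TGI denotes the concentration required for complete inhibition of growth.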
Experiments:
Test in all cases: growth of human tumour cells (NCI), 48 h
[1] = test system: MALME-3M melanoma
[2] = test system: OVCAR-5 ovarian
[3] = test system: RPMI-8226 leukemia
[4] = test system: NCI/ADR-RES ovarian
[5] = test system: SK-MEL-5 melanoma
[6] = test system: T-47D breast
[7] = test system: K-562 leukemia
[8] = test system: MDA-MB-435
[9] = test system: SF-539 CNS
[10] = test system: HCC-2998 colon
[11] = test system: OVCAR-3 ovarian
[12] = test system: MCF7 breast
[13] = test system: MOLT-4 leukemia
[14] = test system: NCI-H226 lung
[15] = test system: SK-OV-3 ovarian
[16] = test system: PC-3 prostate
[17] = test system: UACC-257 melanoma
[18] = test system: CCRF-CEM leukemia
[19] = test system: COLO 205 colon
[20] = test system: SK-MEL-2 melanoma
[21] = test system: MDA-MB-231 breast
[22] = test system: SK-MEL-28 melanoma
[23] = test system: SR leukemia
[24] = test system: SF-268 CNS
[25] = test system: CAKI-1 renal
[26] = test system: HOP-62 NSCLC
[27] = test system: UO-31 renal
[28] = test system: SNB-19 CNS
[29] = test system: IGROV1 ovarian
[30] = test system: OVCAR-4 ovarian
[31] = test system: OVCAR-8 ovarian
[32] = test system: TK-10 renal
[33] = test system: 786-0 renal
[34] = test system: HL-60(TB) leukemia
[35] = test system: HCT-15 colon
[36] = test system: SW-620 colon
[37] = test system: A498 renal
[38] = test system: SNB-75 CNS
[39] = test system: M14 melanoma
[40] = test system: NCI-H23 lung
[41] = test system: MDA-MB-468 breast
[42] = test system: SN12C renal
[43] = test system: RXF 393 renal
[44] = test system: A549 NSCLC
[45] = test system: EKVX NSCLC
[46] = test system: ACHN renal
[47] = test system: HS 578T breast
[48] = test system: BT-549 breast
[49] = test system: U251 CNS
[50] = test system: HCT-116 colon
[51] = test system: NCI-H460 lung
[52] = test system: UACC-62 melanoma
[53] = test system: DU-145 prostate
[54] = test system: HT29 colon
[55] = test system: LOX IMVI melanoma
[56] = test system: SF-295 CNS
[57] = test system: KM12 colon
[58] = test system: NCI-H522 lung
[59] = test system: HOP-92 NSCLC

CN(C(=O)c1ccc(C(C)(C)C)cc1)c1sc2c(c1C#N)CCC(=O)C2
GI50 [1]: 12.6 µM | TGI [1]: 26.2 µM | GI50 [2]: 14 µM | TGI [2]: 27.6 µM | GI50 [3]: 2.93 µM | GI50 [4]: 2.68 µM | TGI [4]: 7.44 µM | GI50 [5]: 2.07 µM | TGI [5]: 4.63 µM | GI50 [6]: 1.83 µM | TGI [6]: 4.07 µM | GI50 [7]: 3.17 µM | TGI [7]: 10.7 µM | GI50 [8]: 5.8 µM | TGI [8]: 21.1 µM | GI50 [9]: 1.77 µM | TGI [9]: 3.42 µM | GI50 [10]: 5.09 µM | TGI [10]: 16.6 µM | GI50 [11]: 2.43 µM | TGI [11]: 5.9 µM | GI50 [12]: 11.8 µM | TGI [12]: 32 µM | GI50 [13]: 4.21 µM | TGI [13]: 23.5 µM | GI50 [14]: 14.1 µM | TGI [14]: 38.1 µM | GI50 [15]: 17.9 µM | TGI [15]: 34.1 µM | GI50 [16]: 2.72 µM | TGI [16]: 8.32 µM | GI50 [17]: 18 µM | TGI [17]: 33.7 µM | GI50 [18]: 3.34 µM | TGI [18]: 10.4 µM | GI50 [19]: 19.6 µM | TGI [19]: 37.2 µM | GI50 [20]: 14.5 µM | TGI [20]: 28.7 µM | GI50 [21]: 2.84 µM | TGI [21]: 8.49 µM | GI50 [22]: 11.2 µM | TGI [22]: 23.9 µM | GI50 [23]: 2.28 µM | TGI [23]: 7.1 µM | GI50 [24]: 4.79 µM | TGI [24]: 24.3 µM | GI50 [25]: 3.8 µM | TGI [25]: 17.6 µM | GI50 [26]: 15.2 µM | TGI [26]: 32.1 µM | GI50 [27]: 2.94 µM | TGI [27]: 11.2 µM | GI50 [28]: 3.7 µM | TGI [28]: 14.7 µM | GI50 [29]: 11.7 µM | TGI [29]: 25 µM | GI50 [30]: 2.64 µM | TGI [30]: 8.45 µM | GI50 [31]: 9.16 µM | TGI [31]: 39.6 µM | GI50 [32]: 10.4 µM | TGI [32]: 23 µM | GI50 [33]: 3.72 µM | TGI [33]: 13.3 µM | GI50 [34]: 8.84 µM | TGI [34]: 30.3 µM | GI50 [35]: 2.04 µM | TGI [35]: 4.13 µM | GI50 [36]: 2.06 µM | TGI [36]: 4.17 µM | GI50 [37]: 15.4 µM | TGI [37]: 29.4 µM | GI50 [38]: 6.94 µM | TGI [38]: 24.4 µM | GI50 [39]: 3.57 µM | TGI [39]: 12.8 µM | GI50 [40]: 2.42 µM | TGI [40]: 6.56 µM | GI50 [41]: 2.27 µM | TGI [41]: 5.63 µM | GI50 [42]: 14 µM | TGI [42]: 27.2 µM | GI50 [43]: 1.96 µM | TGI [43]: 4.53 µM | GI50 [44]: 16.8 µM | TGI [44]: 35.3 µM | GI50 [45]: 3.49 µM | TGI [45]: 14 µM | GI50 [46]: 3.2 µM | TGI [46]: 10.5 µM | GI50 [47]: 3.89 µM | TGI [47]: 28.1 µM | GI50 [48]: 1.98 µM | TGI [48]: 4.88 µM | GI50 [49]: 1.82 µM | TGI [49]: 3.9 µM | GI50 [50]: 2.08 µM | TGI [50]: 4.91 µM | GI50 [51]: 13.1 µM | TGI [51]: 27.5 µM | GI50 [52]: 2.34 µM | TGI [52]: 6.4 µM | GI50 [53]: 16.7 µM | TGI [53]: 33.4 µM | GI50 [54]: 17.8 µM | TGI [54]: 41 µM | GI50 [55]: 2.11 µM | TGI [55]: 5.2 µM | GI50 [56]: 3.45 µM | TGI [56]: 14 µM | GI50 [57]: 3.97 µM | TGI [57]: 14.6 µM | GI50 [58]: 1.75 µM | TGI [58]: 3.45 µM | GI50 [59]: 3.51 µM | TGI [59]: 15.7 µM

— PubChem BioAssay (NCI)
